Results reported in patent US20130034522A1, “THERAPIES FOR TREATING HEPATITIS C VIRUS INFECTION” (priority 2010, published 2013).
Read-outs that look alike come from different tables or passages of the source.

Test: Study VX-222-102 Part A: VX-222 for 3 days in HCV infected subjects (PK, safety)
Format: in vivo, human
Details: for AUC(0-t) / concentration at 12 h / Cmax / Tmax / half-life: human, in vivo; for AUC(0-t): read-out: AUC0-12 hr Geometric Mean; for concentration at 12 h: read-out: C12 Geometric Mean; for Cmax: read-out: Cmax Geometric Mean; for half-life: read-out: T1/2 Arithmetic Mean (converted)
Protocol: In Part A of Study 102 subjects were randomized to VX-222 or placebo in a 6:2 (VX-222: placebo) allocation ratio to either Cohort 1, Cohort 2, Cohort 3, or Cohort 4. Subjects enrolled in Cohort 1, Cohort 2, and Cohort 3 were administered 250 mg, 500 mf, or 750 mg VX-222 or placebo twice daily (b.i.d.) for 3 days, respectively. Subjects enrolled in Cohort 4 were administered 1,500 mg VX-222 or placebo once daily (qd) for 3 days. Standard of care treatment, Peg-IFN-alpha-2a and RBV was offered to the subjects at the end of dosing in Part A for up to 48 weeks, if judged appropriate by the physician.
Additional results of Study VX-222-102 are described in FIGS. 2-8: Thirty-two treatment-naïve patients with chronic genotype 1 HCV infection were enrolled in the trial, including six patients in each dose group who received 250 mg of VX-222 BID, 500 mg of VX-222 BID, 750 mg of VX-222 BID, and 1,500 mg of VX-222 QD. Two patients received placebo in each of the four dosing groups, for a total of eight patients who received placebo. Part A of the trial was conducted at 10 centers in the United States, Canada and Argentina. Of the patients enrolled in the trial, 24 patients had genotype 1a HCV infection and eight patients had genotype 1b HCV infection. Six of the patients enrolled in the trial were African American, 25 were Caucasian and one was American Indian/Alaskan.
Multicenter, randomized, double-blinded, placebo-controlled, dose-ranging study • HCV genotype 1-infected patients • With no evidence of cirrhosis • ALT values <5×ULM • Plasma HCV RNA of >5 log10 IU/mL at screening • 4-arm comparative study (6:2 randomization VX-222: placebo) • Enrollment in this dosing—ranging study was sequential • 250 mg BID for 3 days • 500 mg BID for 3 days • 750 mg BID for 3 days • 1500 mg QD for 3 days.

[1] = all four dose groups, blinded pooled data placebo or VX-222
[2] = 250 mg, 250 mg b.i.d., Day 1, HCV infected subjects
[3] = 250 mg, 250 mg b.i.d., Day 3, HCV infected subjects
[4] = 500 mg, 500 mg b.i.d., Day 1, HCV infected subjects
[5] = 500 mg, 500 mg b.i.d., Day 3, HCV infected subjects
[6] = 750 mg, 750 mg b.i.d., Day 1, HCV infected subjects
[7] = 750 mg, 750 mg b.i.d., Day 3, HCV infected subjects

## CC1CCC(C(=O)N(c2cc(C#CC(C)(C)C)sc2C(=O)O)C2CCC(O)CC2)CC1 (stereo not drawn) [VX-222, 5-(3,3-Dimethylbut-1-ynyl)-3-[(trans-4-hydroxycyclohexyl)-(4-trans methylcyclohexanecarbonyl)amino]thiophene-2-carboxylic acid]
250, 500 or 750 mg b.i.d. for 3 days, genotype 1 chronic hepatitis C subjects
  severe or serious events: no reported severe or serious events
250-750 mg BID and 1500 mg QD, FIG. 7
  VX-222 exposures versus dose: increased with doses in an approximately proportional manner
[1]
  severe or serious adverse events: no severe or serious adverse events were reported
  tolerability: well-tolerated
[2]
  AUC(0-t): 11700 ng·h/mL
  concentration at 12 h: 858 ng/mL
  Cmax: 1810 ng/mL
250 mg, 250 mg b.i.d., Day 1, HCV infected subjects, read-out: tmax Median
  Tmax: 6 h
[3]
  AUC(0-t): 19500 ng·h/mL
  concentration at 12 h: 728 ng/mL
  Cmax: 2960 ng/mL
250 mg, 250 mg b.i.d., Day 3, HCV infected subjects, read-out: tmax Median
  Tmax: 4 h
[4]
  AUC(0-t): 22900 ng·h/mL
  concentration at 12 h: 767 ng/mL
  Cmax: 4360 ng/mL
500 mg, 500 mg b.i.d., Day 1, HCV infected subjects, read-out: tmax Median
  Tmax: 3 h
[5]
  AUC(0-t): 29800 ng·h/mL
  concentration at 12 h: 858 ng/mL
  Cmax: 5040 ng/mL
500 mg, 500 mg b.i.d., Day 3, HCV infected subjects, read-out: tmax Median
  Tmax: 2.5 h
[6]
  AUC(0-t): 43600 ng·h/mL
  concentration at 12 h: 1690 ng/mL
  Cmax: 6520 ng/mL
750 mg, 750 mg b.i.d., Day 1, HCV infected subjects, read-out: tmax Median
  Tmax: 3 h
[7]
  AUC(0-t): 63000 ng·h/mL
  concentration at 12 h: 1680 ng/mL
  Cmax: 10300 ng/mL
750 mg, 750 mg b.i.d., Day 3, HCV infected subjects, read-out: tmax Median
  Tmax: 2 h
Post dose, 250-750 mg BID and 1500 mg QD, FIG. 7, read-out: Tmax
  Tmax: 2 to 6 h
250 mg b.i.d., Day 3, HCV infected subjects
  half-life: 4.1 h
500 mg b.i.d., Day 3, HCV infected subjects
  half-life: 4 h
750 mg b.i.d., Day 3, HCV infected subjects
  half-life: 3.5 h
